The text below walks through data of ChEMBL document CHEMBL5038669, “Development of the First Covalent Monopolar Spindle Kinase 1 (MPS1/TTK) Inhibitor” (J Med Chem, 2022).

pIC50: −log10 of the molar value. The source made the active and inactive calls. The rule behind the calls is not given here.

Assay [1] concerns the target T1, Serine/threonine-protein kinase 17B (Homo sapiens) (UniProt O94768).
T1 sequence (whole entry): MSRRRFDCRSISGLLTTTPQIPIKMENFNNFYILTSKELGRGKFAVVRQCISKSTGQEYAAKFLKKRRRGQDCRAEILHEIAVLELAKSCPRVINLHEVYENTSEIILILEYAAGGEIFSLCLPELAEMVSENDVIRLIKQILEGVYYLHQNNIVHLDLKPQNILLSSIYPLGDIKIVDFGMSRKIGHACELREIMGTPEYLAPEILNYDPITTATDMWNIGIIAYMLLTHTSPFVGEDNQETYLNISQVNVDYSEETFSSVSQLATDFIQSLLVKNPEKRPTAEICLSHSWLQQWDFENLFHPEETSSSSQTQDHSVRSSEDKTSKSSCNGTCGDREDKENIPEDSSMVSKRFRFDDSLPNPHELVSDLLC
The conditions noted are these: dose 10.0 µM.

The target in assay [2] is T2, Dual specificity protein kinase TTK (Homo sapiens) (UniProt P33981).
T2 sequence (whole entry): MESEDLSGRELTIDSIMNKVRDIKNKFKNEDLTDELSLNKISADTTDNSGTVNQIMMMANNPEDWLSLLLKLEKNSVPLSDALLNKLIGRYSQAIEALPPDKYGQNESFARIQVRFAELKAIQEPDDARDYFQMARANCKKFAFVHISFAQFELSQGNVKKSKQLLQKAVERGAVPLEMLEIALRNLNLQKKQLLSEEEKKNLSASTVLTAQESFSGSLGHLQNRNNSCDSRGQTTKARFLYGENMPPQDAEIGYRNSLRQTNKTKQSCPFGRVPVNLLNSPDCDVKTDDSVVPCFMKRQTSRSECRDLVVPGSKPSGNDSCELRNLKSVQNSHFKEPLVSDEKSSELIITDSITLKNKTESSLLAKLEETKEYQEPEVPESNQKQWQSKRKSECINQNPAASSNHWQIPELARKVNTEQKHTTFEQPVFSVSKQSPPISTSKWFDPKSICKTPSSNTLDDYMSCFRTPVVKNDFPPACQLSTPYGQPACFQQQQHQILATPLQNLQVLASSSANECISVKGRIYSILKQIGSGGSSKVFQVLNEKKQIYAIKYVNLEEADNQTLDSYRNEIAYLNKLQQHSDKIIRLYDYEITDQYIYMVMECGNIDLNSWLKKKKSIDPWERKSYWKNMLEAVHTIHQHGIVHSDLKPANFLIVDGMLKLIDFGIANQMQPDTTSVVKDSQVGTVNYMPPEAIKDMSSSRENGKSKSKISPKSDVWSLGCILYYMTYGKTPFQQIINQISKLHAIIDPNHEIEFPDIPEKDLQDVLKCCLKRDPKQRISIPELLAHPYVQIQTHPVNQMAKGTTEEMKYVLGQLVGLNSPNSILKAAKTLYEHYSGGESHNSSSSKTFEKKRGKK
In words: Displacement of tracer K9 from NanoLuc-fused MPS1 (unknown origin) expressed in HEK293T cells at 10 fold IC50 preincubated for 2 hrs followed by compound washout by NanoBRET assay. The assay is classed as cell-based.

For assay [3], the target named is Cyclin-G-associated kinase (Homo sapiens) (UniProt O14976). In words: Binding affinity to human GAK assessed as thermal stability by measuring melting temperature 10 uM by differential scanning fluorimetry. (In general: In DSF a fluorescence change marks the thermal transition of the protein.)
In assay [4] the target is T3, Dual specificity protein kinase TTK (Homo sapiens, UniProt P33981).
T3 sequence (P33981 whole entry): T2 sequence (whole entry)
In words: Inhibition of recombinant human full length N-terminal GST-fused MPS1 (1 to 857 residues) using histone H3 as substrate by TR-FRET assay.

Assay [5] concerns the target T3, Dual specificity protein kinase TTK. The assay is described as follows: Displacement of tracer K9 from NanoLuc-fused MPS1 (unknown origin) expressed in HEK293T cells measured after 2 hrs by NanoBRET assay. Type of assay: cell-based. A general note: In BRET a luciferase serves as donor, and the signal depends on an acceptor being close.

Cyclin-G-associated kinase (Homo sapiens), sequence (O14976 whole entry): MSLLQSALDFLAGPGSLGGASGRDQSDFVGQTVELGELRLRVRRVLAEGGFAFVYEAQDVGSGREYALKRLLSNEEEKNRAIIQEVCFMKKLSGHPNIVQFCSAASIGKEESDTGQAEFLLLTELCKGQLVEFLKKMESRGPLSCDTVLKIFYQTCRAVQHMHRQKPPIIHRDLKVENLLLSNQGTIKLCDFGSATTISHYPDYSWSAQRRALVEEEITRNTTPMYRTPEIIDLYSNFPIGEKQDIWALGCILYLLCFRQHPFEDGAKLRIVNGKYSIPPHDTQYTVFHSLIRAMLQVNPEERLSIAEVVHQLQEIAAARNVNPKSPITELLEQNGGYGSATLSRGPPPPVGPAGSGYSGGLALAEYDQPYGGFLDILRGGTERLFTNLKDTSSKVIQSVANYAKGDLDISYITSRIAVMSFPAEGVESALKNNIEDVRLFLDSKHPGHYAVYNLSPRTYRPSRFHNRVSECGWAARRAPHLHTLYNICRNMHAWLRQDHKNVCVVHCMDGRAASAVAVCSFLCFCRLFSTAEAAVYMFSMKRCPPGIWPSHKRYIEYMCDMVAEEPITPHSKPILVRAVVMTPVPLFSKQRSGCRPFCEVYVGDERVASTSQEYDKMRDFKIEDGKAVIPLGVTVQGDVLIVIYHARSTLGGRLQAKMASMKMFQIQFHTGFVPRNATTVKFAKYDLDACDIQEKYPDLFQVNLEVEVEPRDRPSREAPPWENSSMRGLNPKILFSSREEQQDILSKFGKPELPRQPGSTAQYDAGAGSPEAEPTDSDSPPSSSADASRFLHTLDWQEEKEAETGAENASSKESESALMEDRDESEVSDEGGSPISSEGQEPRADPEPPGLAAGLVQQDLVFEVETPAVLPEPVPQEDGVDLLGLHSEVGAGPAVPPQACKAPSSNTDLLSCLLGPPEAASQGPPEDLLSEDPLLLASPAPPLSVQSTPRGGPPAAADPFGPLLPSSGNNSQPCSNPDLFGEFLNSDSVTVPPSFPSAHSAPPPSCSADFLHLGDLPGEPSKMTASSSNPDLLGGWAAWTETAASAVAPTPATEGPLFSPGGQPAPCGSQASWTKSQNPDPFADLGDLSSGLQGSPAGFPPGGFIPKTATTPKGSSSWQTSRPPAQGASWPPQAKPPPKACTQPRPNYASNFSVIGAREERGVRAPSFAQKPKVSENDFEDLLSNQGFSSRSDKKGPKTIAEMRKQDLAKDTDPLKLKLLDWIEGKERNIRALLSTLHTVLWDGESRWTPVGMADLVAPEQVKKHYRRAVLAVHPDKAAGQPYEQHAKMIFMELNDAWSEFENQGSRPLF

`COc1cc(OC2CCN(C)CC2)ccc1Nc1ncc2c(n1)n(C1CCCC1)c(=O)n2C`: the ΔTm (usually the change in melting temperature against a reference sample) in assay [1] stood at 11.5 °C. Moreover, in assay [2], the outcome was inactive.

Consider `CCc1cccc(CC)c1NC(=O)c1ccn2c1CCc1cnc(Nc3ccc(N4CCN(C)CC4)cc3OC)nc1-2`, for which the ΔTm was 21.6 °C in assay [1] and 13.2 °C in assay [3].

Consider `COc1ccc(Oc2cc(NCCC(F)(F)F)c3ncc(-c4ccc(C(=O)NC5CC5)c(C)c4)n3n2)c(F)c1F`, for which the ΔTm in assay [1] was 19.1 °C.

As to `CCC(=O)Nc1cc(N2CCN(C)CC2)ccc1Nc1ncc2c(n1)-n1ccc(C(=O)Nc3c(CC)cccc3CC)c1CC2`, the ΔTm in assay [1] was 17.4 °C. Moreover, the pIC50 (usually the negative decadic logarithm of the IC50, by convention in mol/L) in assay [4] was 8.04; in assay [5], 7.49.
